In brackets after ≈: the same amount, converted by molar mass.
Experiments:
[1] = system: Prevotella buccae; assay: Antibacterial activity against Prevotella buccae assessed as resistant isolates by CLSI agar dilution method; format: functional, Segatella buccae
[2] = system: Prevotella bivia; assay: Antibacterial activity against Prevotella bivia assessed as resistant isolates by CLSI agar dilution method; format: functional
[3] = system: Prevotella intermedia; assay: Antibacterial activity against Prevotella intermedia assessed as resistant isolates by CLSI agar dilution method; format: functional
[4] = system: Prevotella melaninogenica; assay: Antibacterial activity against Prevotella melaninogenica assessed as resistant isolates by CLSI agar dilution method; format: functional
[5] = system: Veillonella parvula; assay: Antibacterial activity against Veillonella parvula by CLSI agar dilution method; format: functional
[6] = system: Clostridium perfringens; assay: microbe, parasite or virus in culture; format: functional
[7] = system: Clostridium paraputrificum; assay: Antibacterial activity against beta-lactamase producing Clostridium paraputrificum by CLSI agar dilution method; format: functional
[8] = system: Clostridium septicum; assay: Antibacterial activity against beta-lactamase producing Clostridium septicum by CLSI agar dilution method; format: functional
[9] = system: Clostridium tertium; assay: Antibacterial activity against beta-lactamase producing Clostridium tertium by CLSI agar dilution method; format: functional
[10] = system: Clostridium paraputrificum; assay: Antibacterial activity against beta-lactamase producing Clostridium paraputrificum assessed as susceptible isolates by CLSI agar dilution method; format: functional
[11] = system: Clostridium septicum; assay: Antibacterial activity against beta-lactamase producing Clostridium septicum assessed as susceptible isolates by CLSI agar dilution method; format: functional
[12] = system: Clostridium tertium; assay: Antibacterial activity against beta-lactamase producing Clostridium tertium assessed as susceptible isolates by CLSI agar dilution method; format: functional
[13] = system: Bacteroides fragilis; assay: Antibacterial activity against Bacteroides fragilis by CLSI agar dilution method; format: functional
[14] = system: Bacteroides thetaiotaomicron; assay: Antibacterial activity against beta-lactamase producing Bacteroides thetaiotaomicron by CLSI agar dilution method; format: functional
[15] = system: Clostridium paraputrificum; assay: Antibacterial activity against beta-lactamase producing Clostridium paraputrificum assessed as resistant isolates by CLSI agar dilution method; format: functional
[16] = system: Clostridium septicum; assay: Antibacterial activity against beta-lactamase producing Clostridium septicum assessed as resistant isolates by CLSI agar dilution method; format: functional
[17] = system: Clostridium tertium; assay: Antibacterial activity against beta-lactamase producing Clostridium tertium assessed as resistant isolates by CLSI agar dilution method; format: functional
[18] = system: Peptostreptococcus anaerobius; assay: Antibacterial activity against beta-lactamase producing Peptostreptococcus anaerobius by CLSI agar dilution method; format: functional
[19] = system: Peptostreptococcus anaerobius; assay: Antibacterial activity against beta-lactamase producing Peptostreptococcus anaerobius assessed as susceptible isolates by CLSI agar dilution method; format: functional
[20] = system: Peptostreptococcus anaerobius; assay: Antibacterial activity against beta-lactamase producing Peptostreptococcus anaerobius assessed as resistant isolates by CLSI agar dilution method; format: functional
[21] = system: Parvimonas micra; assay: Antibacterial activity against beta-lactamase producing Micromonas micros by CLSI agar dilution method; format: functional
[22] = system: Parvimonas micra; assay: Antibacterial activity against beta-lactamase producing Micromonas micros assessed as susceptible isolates by CLSI agar dilution method; format: functional
[23] = system: Parvimonas micra; assay: Antibacterial activity against beta-lactamase producing Micromonas micros assessed as resistant isolates by CLSI agar dilution method; format: functional
[24] = system: Peptoniphilus asaccharolyticus; assay: Antibacterial activity against beta-lactamase producing Peptoniphilus asaccharolyticus by CLSI agar dilution method; format: functional
[25] = system: Peptoniphilus asaccharolyticus; assay: Antibacterial activity against beta-lactamase producing Peptoniphilus asaccharolyticus assessed as susceptible isolates by CLSI agar dilution method; format: functional
[26] = system: Peptoniphilus asaccharolyticus; assay: Antibacterial activity against beta-lactamase producing Peptoniphilus asaccharolyticus assessed as resistant isolates by CLSI agar dilution method; format: functional
[27] = system: Finegoldia magna; assay: Antibacterial activity against beta-lactamase producing Finegoldia magna by CLSI agar dilution method; format: functional
[28] = system: Finegoldia magna; assay: Antibacterial activity against beta-lactamase producing Finegoldia magna assessed as susceptible isolates by CLSI agar dilution method; format: functional
[29] = system: Finegoldia magna; assay: Antibacterial activity against beta-lactamase producing Finegoldia magna assessed as resistant isolates by CLSI agar dilution method; format: functional

With `O=C(N[C@H](CO)[C@H](O)c1ccc([N+](=O)[O-])cc1)C(Cl)Cl` [CHLORAMPHENICOL] the Activity [1] was 0%, the Activity [2] was 0% and the Activity [3] was 0%. For the same compound, the Activity [4] was 0%, the MIC [5] was 1 µg/mL (≈ 3.09 µM) and the MIC50 [6] was 4 µg/mL (≈ 12.4 µM). It also gave an MIC90 [6] of 8 µg/mL (≈ 24.8 µM), an MIC50 [7] of 4 µg/mL (≈ 12.4 µM) and an MIC90 [7] of 8 µg/mL (≈ 24.8 µM). The MIC50 [8] was 4 µg/mL (≈ 12.4 µM), the MIC90 [8] was 8 µg/mL (≈ 24.8 µM) and the MIC50 [9] was 4 µg/mL (≈ 12.4 µM). It also gave an MIC90 [9] of 8 µg/mL (≈ 24.8 µM), an Activity [10] of 89% and an Activity [11] of 89%. The Activity [12] was 89%, the MIC50 [13] was 4 µg/mL (≈ 12.4 µM) and the MIC90 [13] was 8 µg/mL (≈ 24.8 µM). It also gave an MIC [14] of 4 µg/mL (≈ 12.4 µM), an MIC50 [14] of 4 µg/mL (≈ 12.4 µM) and an MIC90 [14] of 8 µg/mL (≈ 24.8 µM). The Activity [15] was 0%, the Activity [16] was 0% and the Activity [17] was 0%. For the same compound, the MIC [18] was 1 µg/mL (≈ 3.09 µM), the MIC50 [18] was 1 µg/mL (≈ 3.09 µM) and the MIC90 [18] was 4 µg/mL (≈ 12.4 µM). It also gave an Activity [19] of 94%, an Activity [20] of 6% and an MIC [21] of 1 µg/mL (≈ 3.09 µM). It also gave an MIC50 [21] of 1 µg/mL (≈ 3.09 µM), an MIC90 [21] of 4 µg/mL (≈ 12.4 µM) and an Activity [22] of 94%. The Activity [23] was 6%, the MIC [24] was 1 µg/mL (≈ 3.09 µM) and the MIC50 [24] was 1 µg/mL (≈ 3.09 µM). For the same compound, the MIC90 [24] was 4 µg/mL (≈ 12.4 µM), the Activity [25] was 94% and the Activity [26] was 6%. For the same compound, the MIC [27] was 1 µg/mL (≈ 3.09 µM), the MIC50 [27] was 1 µg/mL (≈ 3.09 µM) and the MIC90 [27] was 4 µg/mL (≈ 12.4 µM). The Activity [28] was 94% and the Activity [29] was 6%.

Reference: ChEMBL document CHEMBL1671627, “Increasing trends in antimicrobial resistance among clinically important anaerobes and Bacteroides fragilis isolates causing nosocomial infections: emerging resistance to carbapenems” (2008)
